Experimental findings from ChEMBL document CHEMBL1133220, “Potent new leucine aminopeptidase inhibitor of novel structure synthesised by a modified Wadsworth-Emmons (Horner) Wittig procedure” (Bioorg Med Chem Lett, 2000) are described below.

In the assay the target is Cytosol aminopeptidase (Homo sapiens, UniProt P28838). Put plainly: Inhibitory activity against leucine aminopeptidase.
Cytosol aminopeptidase, sequence (P28838 whole entry): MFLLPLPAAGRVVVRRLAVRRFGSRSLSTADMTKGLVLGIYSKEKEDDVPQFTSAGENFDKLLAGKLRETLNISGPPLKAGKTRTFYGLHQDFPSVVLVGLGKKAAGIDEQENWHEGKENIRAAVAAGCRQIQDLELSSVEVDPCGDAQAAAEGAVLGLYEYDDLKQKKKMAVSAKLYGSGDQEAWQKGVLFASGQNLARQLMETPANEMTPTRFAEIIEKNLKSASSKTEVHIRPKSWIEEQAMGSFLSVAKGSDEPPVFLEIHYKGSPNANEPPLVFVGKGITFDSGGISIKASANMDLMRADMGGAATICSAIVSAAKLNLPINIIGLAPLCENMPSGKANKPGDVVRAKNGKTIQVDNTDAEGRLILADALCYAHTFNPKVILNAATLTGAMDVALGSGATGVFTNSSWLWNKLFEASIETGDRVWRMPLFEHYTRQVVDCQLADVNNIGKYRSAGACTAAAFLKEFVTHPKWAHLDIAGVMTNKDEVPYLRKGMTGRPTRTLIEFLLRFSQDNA

As usually defined, the Ki is a measure of affinity in units of concentration, obtained from inhibition or displacement. High values mean a looser hold on the target, low ones a stronger hold on the target. The compound `COC(=O)/C=C\C(=O)[C@@H](N)CC(C)C` yielded a Ki of 76 nM.
